Laboratory results published in patent US20240174622A1, “COMPOUND AND RADIOACTIVE LABELING COMPOUND” (NIHON MEDI-PHYSICS CO., LTD., priority 2021, published 2024).

Columns and labels:
[1] = tested on: LNCaP tumor-transplanted mouse; assay: Internal radioactivity distribution using LNCaP tumor-transplanted mouse; assay type: in vivo
Procedure: (§1) The animal test was performed in compliance with the guidelines of Kyoto University Animal Experiment Committee. Male CB17/IcrJcl-Prkdc^scid mice were purchased from CLEA Japan, Inc. The animals were kept under 12 h/12 h, day/night cycle conditions and fed ad libitum with food and water. LNCaP cells (1.0×10^7 cells/mouse) or PC-3 cells (1.0×10^7 cells/mouse) were suspended in a mixture of PBS and Matrigel manufactured by Corning Life Sciences (1:1, 150 μL) and the suspension was subcutaneously transplanted to the right shoulder of mice under isoflurane anesthesia. Thereafter, the mice were kept for 40 to 60 days.
LNCaP or PC-3 tumor-implanted mice were administered saline solutions (185 kBq, 100 μL) of [^111In]In-PSMA-DA1 or [^111In]In-PSMA-DB from the tail vein (n=3 each). Mice were euthanized 1, 4, 24, 48, 96, and 192 hours after administration. Thereafter, blood and each organ were recovered, and the mass and radioactivity of the organs were measured.
The percentage (% ID) of the radioactivity amount to the administered radioactivity amount (injected dose) is shown as the value (% ID/g) divided by the blood mass or the organ mass (g).
LNCaP tumor-implanted mice prepared by the same method as in Example 1-1 were administered a saline solution (241 kBq/100 μL) of [^111In]In-PtDA from the tail vein (n=3). Mice were euthanized 1, 24, and 48 hours after administration. Thereafter, blood and each organ were recovered, and the mass and radioactivity of the organs were measured.
LNCaP tumor-implanted mice prepared by the same method as in Example 1-1 were administered a saline solution (259 kBq/100 μL each) of each of the radiolabeled compounds in Examples 3-1 to 3-3 or Comparative Examples 2-1 to 2-2 from the tail vein (n=2 to 3). Mice were euthanized 1, 4, 24, 48, 96, and 192 hours after administration. Thereafter, blood and each organ were recovered, and the mass and radioactivity of the organs were measured.
as §1, with “LNCaP cells (4.3×10^6 cells/mouse) or” for “LNCaP cells (1.0×10^7 cells/mouse) or”, “PC-3 cells (3.3×10^6 cells/mouse) were” for “PC-3 cells (1.0×10^7 cells/mouse) were”, “shoulder of CB17/IcrJcl-Prkdc^scid mice under” for “shoulder of mice under”
Mice were euthanized 1, 4, 24, 48, 96, and 192 hours after administration. Thereafter, blood and each organ were recovered, and the mass and radioactivity of the organs were measured.
The results are shown in Table 12 (Mean value±standard deviation, n=3).

[2] = target: human serum albumin (HSA) (Homo sapiens, UniProt P02768); assay: Evaluation of binding to albumin (HSA solution, PBS control); details: left to stand in HSA solution (45 mg/mL)
Procedure: Thereafter, the reaction liquids were added to a spin column (Sephadex G-100; manufactured by Cytiva), and centrifuged at 1500×g at 4° C. for 2 minutes. After separation, the radioactivity for each of the column and the eluate was measured with a gamma counter.
When a compound to be evaluated binds to albumin to form a composite, the compound passes through the column because of the increased molecular size.
As in Examples described above, PBS and human albumin were used to evaluate binding to albumin.
Thereafter, the reaction liquid was added to a spin column (Sephadex G-50; manufactured by Cytiva), and centrifuged at 1500×g at 4° C. for 2 minutes. After separation, the radioactivity of the column and the eluate was measured with a gamma counter.

Chain of human serum albumin (HSA) (P02768 25-609): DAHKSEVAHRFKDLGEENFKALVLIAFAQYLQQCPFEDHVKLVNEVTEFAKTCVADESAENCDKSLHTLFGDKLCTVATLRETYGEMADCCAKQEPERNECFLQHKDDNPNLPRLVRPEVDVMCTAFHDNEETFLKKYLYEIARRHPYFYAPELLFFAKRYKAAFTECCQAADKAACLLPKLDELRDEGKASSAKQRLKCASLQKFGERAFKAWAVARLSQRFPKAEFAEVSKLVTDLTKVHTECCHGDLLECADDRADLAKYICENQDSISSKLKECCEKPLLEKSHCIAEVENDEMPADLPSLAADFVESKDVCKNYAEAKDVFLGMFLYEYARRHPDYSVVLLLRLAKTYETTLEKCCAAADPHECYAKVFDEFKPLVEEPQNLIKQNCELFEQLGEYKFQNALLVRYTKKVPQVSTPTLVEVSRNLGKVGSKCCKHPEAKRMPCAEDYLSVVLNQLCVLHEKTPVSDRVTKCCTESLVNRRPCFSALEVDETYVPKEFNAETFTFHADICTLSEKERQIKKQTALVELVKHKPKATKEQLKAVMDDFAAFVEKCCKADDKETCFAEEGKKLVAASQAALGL

`O=C([O-])CN(CCN(CCc1ccc(NC(=O)CCCCCNC(=O)CCC(=O)NCCCC[C@H](NC(=O)N[C@@H](CCC(=O)O)C(=O)O)C(=O)O)cc1)CCN(CC(=O)[O-])Cc1cccc(C(=O)[O-])n1)Cc1cccc(C(=O)[O-])n1.[111In+3]` [[^111In]In-Neunpa-1, reference compound] gave a Blood ([1]; 1 h after administration) of 2.30 ± 0.28 % ID/g, a Brain ([1]; 1 h after administration) of 0.05 ± 0.00 % ID/g and a Heart ([1]; 1 h after administration) of 0.70 ± 0.03 % ID/g. For the same compound, the Intestine ([1]; 1 h after administration) was 0.47 ± 0.03 % ID/g, the Kidney ([1]; 1 h after administration) was 214 ± 53.0 % ID/g and the “LNCaP Tumor” value ([1]; 1 h after administration) was 1.06 ± 0.21 % ID/g. For the same compound, the Liver ([1]; 1 h after administration) was 0.60 ± 0.07 % ID/g, the Lung ([1]; 1 h after administration) was 1.75 ± 0.18 % ID/g and the Muscle ([1]; 1 h after administration) was 0.28 ± 0.06 % ID/g. For the same compound, the Pancreas ([1]; 1 h after administration) was 0.57 ± 0.14 % ID/g, the Spleen ([1]; 1 h after administration) was 6.83 ± 1.70 % ID/g and the “Stomach (% ID)” value ([1]; 1 h after administration) was 0.17 ± 0.02 % ID. For the same compound, the Blood ([1]; 4 h after administration) was 1.24 ± 0.15 % ID/g, the Brain ([1]; 4 h after administration) was 0.04 ± 0.00 % ID/g and the Heart ([1]; 4 h after administration) was 0.47 ± 0.08 % ID/g. For the same compound, the Intestine ([1]; 4 h after administration) was 0.66 ± 0.08 % ID/g, the Kidney ([1]; 4 h after administration) was 125 ± 89.2 % ID/g and the “LNCaP Tumor” value ([1]; 4 h after administration) was 0.69 ± 0.30 % ID/g. For the same compound, the Liver ([1]; 4 h after administration) was 0.69 ± 0.05 % ID/g, the Lung ([1]; 4 h after administration) was 1.03 ± 0.13 % ID/g and the Muscle ([1]; 4 h after administration) was 0.11 ± 0.04 % ID/g. For the same compound, the Pancreas ([1]; 4 h after administration) was 0.50 ± 0.13 % ID/g, the Spleen ([1]; 4 h after administration) was 4.76 ± 1.17 % ID/g and the “Stomach (% ID)” value ([1]; 4 h after administration) was 0.11 ± 0.03 % ID. The Blood ([1]; 24 h after administration) was 0.20 ± 0.02 % ID/g, the Brain ([1]; 24 h after administration) was 0.02 ± 0.01 % ID/g and the Heart ([1]; 24 h after administration) was 0.21 ± 0.01 % ID/g. For the same compound, the Intestine ([1]; 24 h after administration) was 0.32 ± 0.02 % ID/g, the Kidney ([1]; 24 h after administration) was 13.5 ± 0.43 % ID/g and the “LNCaP Tumor” value ([1]; 24 h after administration) was 0.28 ± 0.02 % ID/g. The Liver ([1]; 24 h after administration) was 0.69 ± 0.05 % ID/g, the Lung ([1]; 24 h after administration) was 0.34 ± 0.05 % ID/g and the Muscle ([1]; 24 h after administration) was 0.10 0.00 % ID/g. For the same compound, the Pancreas ([1]; 24 h after administration) was 0.28 ± 0.03 % ID/g, the Spleen ([1]; 24 h after administration) was 2.74 ± 0.07 % ID/g and the “Stomach (% ID)” value ([1]; 24 h after administration) was 0.05 ± 0.00 % ID. The Blood ([1]; 48 h after administration) was 0.09 ± 0.03 % ID/g, the Brain ([1]; 48 h after administration) was 0.03 ± 0.01 % ID/g and the Heart ([1]; 48 h after administration) was 0.18 ± 0.05 % ID/g. The Intestine ([1]; 48 h after administration) was 0.32 ± 0.06 % ID/g, the Kidney ([1]; 48 h after administration) was 25.2 ± 17.1 % ID/g and the “LNCaP Tumor” value ([1]; 48 h after administration) was 0.30 ± 0.11 % ID/g. The Liver ([1]; 48 h after administration) was 0.80 ± 0.13 % ID/g, the Lung ([1]; 48 h after administration) was 0.32 ± 0.04 % ID/g and the Muscle ([1]; 48 h after administration) was 0.10 ± 0.03 % ID/g. The Pancreas ([1]; 48 h after administration) was 0.38 ± 0.06 % ID/g, the Spleen ([1]; 48 h after administration) was 2.62 ± 0.79 % ID/g and the “Stomach (% ID)” value ([1]; 48 h after administration) was 0.09 ± 0.06 % ID. It also gave a Blood ([1]; 96 h after administration) of 0.06 ± 0.02 % ID/g, a Brain ([1]; 96 h after administration) of 0.03 ± 0.00 % ID/g and a Heart ([1]; 96 h after administration) of 0.28 ± 0.06 % ID/g. The Intestine ([1]; 96 h after administration) was 0.16 ± 0.07 % ID/g, the Kidney ([1]; 96 h after administration) was 15.1 ± 4.76 % ID/g and the “LNCaP Tumor” value ([1]; 96 h after administration) was 0.32 ± 0.09 % ID/g. For the same compound, the Liver ([1]; 96 h after administration) was 0.77 ± 0.07 % ID/g, the Lung ([1]; 96 h after administration) was 0.39 ± 0.06 % ID/g and the Muscle ([1]; 96 h after administration) was 0.09 ± 0.03 % ID/g. The Pancreas ([1]; 96 h after administration) was 0.32 ± 0.02 % ID/g, the Spleen ([1]; 96 h after administration) was 2.47 ± 0.60 % ID/g and the “Stomach (% ID)” value ([1]; 96 h after administration) was 0.07 ± 0.03 % ID. The Blood ([1]; 192 h after administration) was 0.01 % ID/g, the Brain ([1]; 192 h after administration) was 0.03 % ID/g and the Heart ([1]; 192 h after administration) was 0.22 % ID/g. For the same compound, the Intestine ([1]; 192 h after administration) was 0.06 % ID/g, the Kidney ([1]; 192 h after administration) was 2.79 % ID/g and the “LNCaP Tumor” value ([1]; 192 h after administration) was 0.15 % ID/g. It also gave a Liver ([1]; 192 h after administration) of 0.63 % ID/g, a Lung ([1]; 192 h after administration) of 0.20 % ID/g and a Muscle ([1]; 192 h after administration) of 0.07 % ID/g. The Pancreas ([1]; 192 h after administration) was 0.37 % ID/g, the Spleen ([1]; 192 h after administration) was 1.05 % ID/g and the “Stomach (% ID)” value ([1]; 192 h after administration) was 0.02 % ID. The “radioactivity in the eluate (in words)” value [2] was “low”.
